Tests used:
A673 cells = assay: Inhibition of proliferation of A673 cells (CyQUANT, 72 hour); format: cell-based, human; conditions: read-out: Inhibition of Proliferation of A673 Cells (calculated IC50)
Method: A673 Cells: A673 cells are a cell line derived from human muscle Ewing's sarcoma. Representative compounds of the invention were tested at different concentrations (from 4 μM to […]; 0.5 log serial dilutions) for their ability to inhibit the proliferation of A673 cells. Known CDK inhibitors dinaciclib or N-((1S,3R)-3-((5-chloro-4-(1H-indol-3-yl)pyrimidin-2-yl)amino)cyclohexyl)-5-((E)-4-(dimethylamino)but-2-enamido)picolinamide and triptolide were used as positive controls. Cells were grown in Dulbecco's Modified Eagle's Medium, +10% FBS+1 mM Sodium Pyruvate. The cells were cultured at 37° C. in a humidified chamber in the presence of 5% CO2. Proliferation assays were conducted over a 72 hour time period. CyQUANT® (Life Technologies, Chicago, Ill. USA) was used to assess the anti-proliferative effects of the compounds following manufacturer's directions and utilizing the reagents supplied with the CyQUANT® kit.

CDK9/Cyclin T1 complex = CDK9/Cyclin T1 complex (Homo sapiens, UniProt P50750); assay: CDK9 kinase inhibition assay (Caliper/LabChip EZ Reader); format: biochemical; conditions: CDK9/Cyclin T1 8 nM, ATP 2 mM, 15 min at 27° C.
CDK9/Cyclin T1 complex, sequence (P50750 whole entry): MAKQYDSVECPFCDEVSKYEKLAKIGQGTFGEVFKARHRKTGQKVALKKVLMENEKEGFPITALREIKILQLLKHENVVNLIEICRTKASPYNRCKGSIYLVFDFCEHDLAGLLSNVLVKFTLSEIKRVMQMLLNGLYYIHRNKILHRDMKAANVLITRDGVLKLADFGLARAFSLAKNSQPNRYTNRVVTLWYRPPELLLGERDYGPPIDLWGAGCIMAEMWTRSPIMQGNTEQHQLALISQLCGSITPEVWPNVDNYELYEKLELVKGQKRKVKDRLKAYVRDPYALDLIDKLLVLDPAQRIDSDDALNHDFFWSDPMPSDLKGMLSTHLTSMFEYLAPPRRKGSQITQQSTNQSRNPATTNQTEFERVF
CDK9/Cyclin T1 complex, sequence (O60563 whole entry partner): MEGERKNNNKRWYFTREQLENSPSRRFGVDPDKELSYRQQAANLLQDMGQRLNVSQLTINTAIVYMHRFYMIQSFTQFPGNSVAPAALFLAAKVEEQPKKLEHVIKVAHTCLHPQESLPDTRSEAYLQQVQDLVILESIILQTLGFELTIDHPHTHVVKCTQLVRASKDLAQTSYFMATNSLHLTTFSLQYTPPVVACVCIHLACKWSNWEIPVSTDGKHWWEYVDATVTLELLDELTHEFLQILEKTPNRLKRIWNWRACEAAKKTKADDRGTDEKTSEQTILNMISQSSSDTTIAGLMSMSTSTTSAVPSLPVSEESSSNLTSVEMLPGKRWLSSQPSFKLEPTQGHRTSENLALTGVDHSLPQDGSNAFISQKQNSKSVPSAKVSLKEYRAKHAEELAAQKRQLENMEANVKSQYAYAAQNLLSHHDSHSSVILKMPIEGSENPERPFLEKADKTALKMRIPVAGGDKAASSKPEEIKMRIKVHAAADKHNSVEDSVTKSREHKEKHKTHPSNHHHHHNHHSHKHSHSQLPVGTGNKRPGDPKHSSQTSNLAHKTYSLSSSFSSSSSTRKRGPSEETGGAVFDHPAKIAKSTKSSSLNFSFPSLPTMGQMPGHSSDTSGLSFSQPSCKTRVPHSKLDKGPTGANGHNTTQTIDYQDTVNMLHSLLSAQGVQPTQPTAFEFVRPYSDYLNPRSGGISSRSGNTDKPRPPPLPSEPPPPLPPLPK
Method: (§1) Compounds of the invention were assayed for inhibition of CDK7, CDK9, CDK12, and CDK2 activity at Biortus Biosciences (Jiangyin, Jiangsu Province, P.R. of China) using kinase assays for each CDK developed with a Caliper/LabChip EZ Reader (Perkin Elmer, Waltham, Mass.).
(§2) Furthermore, the CDK9 inhibition assay used CDK9/Cyclin T1 complex (8 nM) and “5-FAM-CDK9tide” peptide substrate (2 μM, synthesized fluorophore-labeled peptide with the following sequence: 5-FAM-GSRTPMY-NH2 where 5-FAM is defined above and NH2 signifies a C-terminal amide) with 10 mM MgCl2 in the buffer composition listed above. The CDK12 inhibition assay used CDK12 (aa686-1082)/Cyclin K complex (50 nM) and “5-FAM-CDK9tide” (2 μM) as defined above, with 2 mM MgCl2 in the buffer composition above. Additionally, the CDK2 inhibition assay used CDK2/Cyclin E1 complex (0.5 nM) and “5-FAM-CDK7tide” (2 μM) as defined above, with 2 mM MgCl2 in the buffer composition listed above.
(§3) The incubation period at 27° C. for each CDK inhibition assay was chosen such that the fraction of phosphorylated peptide product produced in each assay, relative to the total peptide concentration, was approximately 20% (±5%) for the uninhibited kinase (35 min. for CDK7, 35 min. for CDK2, 3 hr. for CDK12, 15 min. for CDK9).

[1] = biological target: T1, CDK12 (aa686-1082)/Cyclin K complex (Homo sapiens, UniProt Q9NYV4); assay: CDK12 kinase inhibition assay (Caliper/LabChip EZ Reader); format: biochemical; conditions: CDK12 (aa686-1082)/Cyclin K 50 nM, ATP 2 mM, 3 hr at 27° C.
T1 construct: CDK12 (aa686-1082)/Cyclin K complex
T1 sequence (Q9NYV4 686-1082): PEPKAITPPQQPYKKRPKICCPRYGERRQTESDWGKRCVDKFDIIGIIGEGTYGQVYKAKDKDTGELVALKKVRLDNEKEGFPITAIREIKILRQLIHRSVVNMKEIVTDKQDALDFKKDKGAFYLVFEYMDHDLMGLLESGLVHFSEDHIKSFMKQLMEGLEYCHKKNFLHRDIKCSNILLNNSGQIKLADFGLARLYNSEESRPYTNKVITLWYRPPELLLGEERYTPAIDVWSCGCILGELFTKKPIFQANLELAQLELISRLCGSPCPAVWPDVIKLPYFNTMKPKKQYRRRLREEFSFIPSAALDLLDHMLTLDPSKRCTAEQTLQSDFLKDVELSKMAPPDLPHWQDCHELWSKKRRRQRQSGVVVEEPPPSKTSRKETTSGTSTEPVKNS
T1 sequence (O75909 whole entry partner, the tested form may be a part): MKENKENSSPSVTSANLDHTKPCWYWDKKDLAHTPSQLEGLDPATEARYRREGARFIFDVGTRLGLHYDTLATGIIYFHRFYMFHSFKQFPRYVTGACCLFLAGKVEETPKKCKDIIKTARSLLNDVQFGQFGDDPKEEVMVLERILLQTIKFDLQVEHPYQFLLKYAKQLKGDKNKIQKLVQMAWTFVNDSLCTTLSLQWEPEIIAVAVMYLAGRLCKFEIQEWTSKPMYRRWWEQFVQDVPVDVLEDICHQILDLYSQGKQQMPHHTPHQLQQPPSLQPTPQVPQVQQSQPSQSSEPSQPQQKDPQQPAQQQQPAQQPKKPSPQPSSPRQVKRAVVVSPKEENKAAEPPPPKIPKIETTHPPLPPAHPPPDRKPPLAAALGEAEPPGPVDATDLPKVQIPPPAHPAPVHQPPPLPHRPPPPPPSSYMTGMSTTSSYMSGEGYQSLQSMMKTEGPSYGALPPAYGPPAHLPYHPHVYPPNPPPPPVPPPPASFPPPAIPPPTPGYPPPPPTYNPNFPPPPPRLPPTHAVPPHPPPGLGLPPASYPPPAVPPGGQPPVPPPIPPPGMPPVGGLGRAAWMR
Method: as §1, §2, §3

CDK2/Cyclin E1 complex = CDK2/Cyclin E1 complex (Homo sapiens, UniProt P24941); assay: CDK2 kinase inhibition assay (Caliper/LabChip EZ Reader); format: biochemical; conditions: CDK2/Cyclin E1 0.5 nM, ATP 2 mM, 35 min at 27° C.
Method: as §1, §2, §3

[2] = biological target: CDK7/Cyclin H/MAT1 complex (Homo sapiens, UniProt P50613); assay: CDK7 kinase inhibition assay (Caliper/LabChip EZ Reader); format: biochemical; conditions: CDK7/Cyclin H/MAT1 6 nM, ATP 2 mM, 35 min at 27° C.
CDK7/Cyclin H/MAT1 complex, sequence (P50613 whole entry): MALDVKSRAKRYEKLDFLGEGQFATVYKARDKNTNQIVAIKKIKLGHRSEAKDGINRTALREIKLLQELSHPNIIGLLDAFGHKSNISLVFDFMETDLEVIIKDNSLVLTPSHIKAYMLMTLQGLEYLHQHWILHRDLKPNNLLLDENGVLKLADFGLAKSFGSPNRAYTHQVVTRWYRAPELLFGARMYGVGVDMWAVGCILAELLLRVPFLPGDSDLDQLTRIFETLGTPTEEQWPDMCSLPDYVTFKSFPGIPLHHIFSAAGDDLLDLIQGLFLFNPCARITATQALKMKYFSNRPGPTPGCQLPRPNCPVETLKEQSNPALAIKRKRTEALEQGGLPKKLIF
CDK7/Cyclin H/MAT1 complex, sequence (P51946 whole entry partner): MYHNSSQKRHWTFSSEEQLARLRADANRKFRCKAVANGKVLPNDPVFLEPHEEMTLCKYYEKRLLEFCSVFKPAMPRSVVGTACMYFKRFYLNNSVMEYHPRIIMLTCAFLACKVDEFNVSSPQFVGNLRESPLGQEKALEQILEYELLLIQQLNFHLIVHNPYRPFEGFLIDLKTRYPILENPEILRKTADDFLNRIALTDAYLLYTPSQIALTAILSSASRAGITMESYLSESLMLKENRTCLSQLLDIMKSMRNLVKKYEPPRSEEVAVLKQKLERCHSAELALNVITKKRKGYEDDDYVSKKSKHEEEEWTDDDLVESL
CDK7/Cyclin H/MAT1 complex, sequence (P51948 whole entry partner): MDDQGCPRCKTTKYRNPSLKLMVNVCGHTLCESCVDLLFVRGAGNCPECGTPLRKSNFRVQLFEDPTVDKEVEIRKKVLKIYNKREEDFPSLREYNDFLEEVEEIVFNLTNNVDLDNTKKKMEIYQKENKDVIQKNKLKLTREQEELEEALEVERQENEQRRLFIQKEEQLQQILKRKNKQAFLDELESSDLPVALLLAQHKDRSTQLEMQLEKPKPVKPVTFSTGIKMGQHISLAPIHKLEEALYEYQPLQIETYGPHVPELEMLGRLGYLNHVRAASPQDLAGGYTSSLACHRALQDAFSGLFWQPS
Method: as §1, §2, §3

Structure (SMILES)	IC50 (A673 cells) [nM]	IC50 (CDK9/Cyclin T1 complex) [nM]	IC50 [1] [nM]	IC50 (CDK2/Cyclin E1 complex) [nM]	IC50 [2] [nM]
CC(O)c1cnc(NC2CCCNC2)nc1-c1c[nH]c2ccccc12 (stereo not drawn) [Compound 238]	200 to 5000	≥ 5000	≥ 5000	≥ 5000	200 to 5000
FC(F)(F)c1cnc(NC2CCCNC2)nc1-c1c[nH]c2cc(N3CCCC3)ccc12 (stereo not drawn) [Compound 213]	20 to 200	≥ 5000	200 to 5000	≥ 5000	20 to 200
Clc1cnc(NC2CCCNC2)nc1-c1c[nH]c2ccc(N3CCOCC3)cc12 (stereo not drawn) [Compound 151]	20 to 200	≥ 5000	≥ 5000	≥ 5000	200 to 5000
Clc1cnc(N[C@H]2CCCNC2)nc1-c1c[nH]c2c(N3CCOCC3)cccc12 [Compound 150]	20 to 200	200 to 5000	200 to 5000	200 to 5000	20 to 200
CCc1cnc(N[C@H]2CCCNC2)nc1-c1n[nH]c2c(F)cccc12 [Compound 143]	< 20	200 to 5000	200 to 5000	200 to 5000	< 20
O=C(c1ccc2c(-c3nc(NC4CCCNC4)ncc3C(F)(F)F)c[nH]c2c1)N1CCC(O)C1 (stereo not drawn) [Compound 204]	200 to 5000	≥ 5000	200 to 5000	≥ 5000	< 20
Clc1cnc(NC2CCCNC2)nc1-c1cn(-c2ccccc2)c2ccccc12 (stereo not drawn) [Compound 132]	200 to 5000	200 to 5000	≥ 5000	≥ 5000	200 to 5000
Clc1cnc(N[C@H]2CN3CCC2CC3)nc1-c1c[nH]c2ccccc12 [Compound 134]	200 to 5000	≥ 5000	≥ 5000	≥ 5000	≥ 5000
Fc1cccc2c(-c3nc(NC4CCCNC4)ncc3Cl)n[nH]c12 (stereo not drawn) [Compound 155]	< 20	200 to 5000	200 to 5000	200 to 5000	20 to 200
CCOP(=O)(OCC)c1ccc2c(-c3nc(NC4CCCNC4)ncc3C(F)(F)F)c[nH]c2c1 (stereo not drawn) [Compound 187]	20 to 200	≥ 5000	200 to 5000	≥ 5000	20 to 200
FC(F)(F)c1cnc(NC2CCCNC2)nc1-c1c[nH]c2cc(-c3cn[nH]c3)ccc12 (stereo not drawn) [Compound 188]	20 to 200	200 to 5000	200 to 5000	200 to 5000	< 20
CS(=O)(=O)Cc1ccc2c(-c3nc(NC4CCCNC4)ncc3C(F)(F)F)c[nH]c2c1 (stereo not drawn) [Compound 219]	20 to 200	200 to 5000	200 to 5000	200 to 5000	< 20
C=Cc1cnc(NC2CCCNC2)nc1-c1c[nH]c2ccccc12 (stereo not drawn) [Compound 218]	20 to 200	200 to 5000	200 to 5000	200 to 5000	< 20
FC(F)(F)c1cnc(NC2CCCNC2)nc1-c1c[nH]c2cc(-c3ncc[nH]3)ccc12 (stereo not drawn) [Compound 202]	20 to 200	200 to 5000	≥ 5000	200 to 5000	< 20
Cc1cccc2c(-c3nc(NC4CCCNC4)ncc3C(F)(F)F)c[nH]c12 (stereo not drawn) [Compound 124]	< 20	200 to 5000	20 to 200	200 to 5000	< 20
Clc1cnc(NC2CNCCC2c2ccccc2)nc1-c1c[nH]c2ccccc12 (stereo not drawn) [Compound 116]	200 to 5000	≥ 5000	≥ 5000	≥ 5000	≥ 5000
CC(C)C1CC[C@H](Nc2ncc(C(F)(F)F)c(-c3c[nH]c4ccccc34)n2)CN1 (stereo partly drawn) [Compound 257]	200 to 5000	≥ 5000	≥ 5000	≥ 5000	20 to 200
N#Cc1cc(-c2ccc3c(-c4nc(NC5CCCNC5)ncc4C(F)(F)F)c[nH]c3c2)c[nH]1 (stereo not drawn) [Compound 233]	20 to 200	200 to 5000	200 to 5000	200 to 5000	< 20
FCCc1cnc(NC2CCCNC2)nc1-c1c[nH]c2ccccc12 (stereo not drawn) [Compound 206]	200 to 5000	200 to 5000	200 to 5000	≥ 5000	20 to 200
OC1CC=C(c2cccc3c(-c4nc(NC5CCCNC5)ncc4C(F)(F)F)c[nH]c23)CC1 (stereo not drawn) [Compound 198]	< 20	200 to 5000	200 to 5000	200 to 5000	< 20
FC(F)(F)Cc1cnc(N[C@H]2CCCNC2)nc1-c1c[nH]c2ccccc12 [Compound 158]	20 to 200	≥ 5000	200 to 5000	≥ 5000	200 to 5000
FC(F)(F)c1cnc(NC2CCCNC2)nc1-c1c[nH]c2ccc(-c3cn[nH]c3)cc12 (stereo not drawn) [Compound 177]	200 to 5000	≥ 5000	200 to 5000	≥ 5000	20 to 200
c1ccc2c(-c3nc(NC4CCCNC4)ncc3C3CC3)c[nH]c2c1 (stereo not drawn) [Compound 135]	200 to 5000	≥ 5000	≥ 5000	≥ 5000	20 to 200
Cc1[nH]c2ccccc2c1-c1nc(NC2CCCNC2)ncc1Cl (stereo not drawn) [Compound 106]	20 to 200	200 to 5000	200 to 5000	≥ 5000	20 to 200
COCCn1cc(-c2nc(NC3CCCNC3)ncc2C(F)(F)F)c2ccccc21 (stereo not drawn) [Compound 123]	200 to 5000	200 to 5000	≥ 5000	≥ 5000	20 to 200
Brc1cnc(N[C@@H]2CCCNC2)nc1-c1c[nH]c2ccccc12 [Compound 133]	< 20	200 to 5000	20 to 200	20 to 200	< 20
Cc1c(-c2ccc3c(-c4nc(NC5CCCNC5)ncc4C(F)(F)F)c[nH]c3c2)cnn1C (stereo not drawn) [Compound 227]	20 to 200	200 to 5000	200 to 5000	200 to 5000	< 20

From patent publication US20230000870A1, “METHODS OF TREATING CANCER IN BIOMARKER-IDENTIFIED PATIENTS WITH INHIBITORS OF CYCLIN-DEPENDENT KINASE 7 (CDK7)” (Syros Pharmaceuticals, Inc., priority 2019, published 2023)
